Laboratory results from publication PMC7269481, “ZN148 Is a Modular Synthetic Metallo-β-Lactamase Inhibitor That Reverses Carbapenem Resistance in Gram-Negative Pathogens In Vivo” (Antimicrobial Agents and Chemotherapy, 2020).
Values joined by “and” are separate entries in the source; they are usually repeats but may differ in a detail not shown here. Equal entries are not always repeated. Where two headings read alike, the source gives them in different places. One block for each compound: values may come before it.

Legend:
[1] = test system: HepG2 cells; assay: In vitro toxicity, alamarBlue viability; assay type: cell-based, human; conditions: 24 h
Description: The human hepatoblastoma HepG2 cell line (HB-8065; ATCC, Manassas, VA) was cultured in DMEM-GlutaMAX (5.5 mM glucose; Thermo Fisher) supplemented with 10% fetal bovine serum (Sigma-Aldrich), streptomycin (100 μg/ml; Gibco/Thermo Fisher), and penicillin (100 U/ml; Gibco/Thermo Fisher) at 37°C in 5% CO2. For viability assays, cells were seeded in white 96-well Nunclon plates (Sigma-Aldrich) at a density of 20,000 cells/well and left overnight to adhere. ZN148 and TPA (Sigma-Aldrich, Darmstadt, Germany) dissolved in dimethyl sulfoxide (DMSO; (Sigma-Aldrich) were added to the white 96-well plates containing 20,000 HepG2 cells/well at concentrations ranging from 1 to 1 × 10^−3 mM (a DMSO concentration kept below 1%), followed by incubation for 24 h at 37°C in 5% CO2. After 24 h, alamarBlue cell viability reagent (Thermo Fisher, Carlsbad, CA) was added (10% final concentration), followed by incubation for 4 h at 37°C. The proportion of viable cells in each well was measured in a fluorescence plate reader (Clariostar; BMGlabtech, Germany) at excitation 550 nm/emission 603 nm ([56]). Data from eight replicates were fitted by nonlinear regression to determine IC50 values using Prism (GraphPad Software, Inc.).

[2] = test system: NDM-1-producing K. pneumoniae K66-45; assay: Meropenem MIC, broth microdilution, indicator strain K66-45; assay type: cell-based; conditions: meropenem alone or in combination with 50 μM of the labelled inhibitor
Description: (§1) MICs of carbapenems alone and in combination with inhibitors were determined by broth microdilution according to the Clinical and Laboratory Standards Institute (CLSI) guidelines ([48]) using either premade plates (TREK Diagnostic Systems/Thermo Fisher Scientific, East Grinstead, United Kingdom) with meropenem or in-house-prepared plates with meropenem, imipenem, and doripenem. ZN148 and other inhibitors were tested at a fixed concentration of 50 μM. Cation-adjusted Mueller-Hinton medium (TREK Diagnostic Systems/Thermo Fisher Scientific; Becton Dickinson, Franklin Lakes, NJ) were used as growth medium. The plates were incubated for 20 h at 37°C. ZN148, ZN222, ZN223, ZN228, and TPA were initially tested in combination with meropenem using two indicator strains: NDM-1-producing K. pneumoniae ([49], [50]) and VIM-2-producing P. aeruginosa ([51]). The activity of ZN148 were subsequently tested against two extended strain collections: (i) in combination with meropenem against MBL-producing Enterobacterales (n = 62), MBL-producing P. aeruginosa (n = 9) and MBL- and class D carbapenemase-coproducing Enterobacterales (n = 5) from the strain collection at the Norwegian National Advisory Unit on Detection of Antimicrobial Resistance and (ii) in combination with meropenem, imipenem, and doripenem against globally collected MBL-producing E. coli (n = 87), K. pneumoniae (n = 85), P. aeruginosa (n = 52), and A. baumannii (n = 6), MBL- and class A/D carbapenemase-coproducing E. coli (n = 11), K. pneumoniae (n = 15) and A. baumannii (n = 7) at IHMA Europe, Sàrl, Switzerland. E. coli ATCC 25922 and P. aeruginosa ATCC 27853 were used as quality control strains. The MBL inhibitors were also tested for intrinsic antibacterial activity against the strains.

[3] = test system: VIM-2-producing P. aeruginosa K34-7; assay: Meropenem MIC, broth microdilution, indicator strain K34-7; assay type: cell-based; conditions: meropenem alone or in combination with 50 μM of the labelled inhibitor
Description: as §1

[4] = read-out: affinity toward Zn^2+; cited from earlier work
[5] = test system: NDM-1-producing A. baumannii strains (n=6); assay: Carbapenem MIC, NDM-1-producing A. baumannii; assay type: cell-based; conditions: carbapenem alone or in combination with 50µM ZN148; one value per strain (n=6)
Description: as §1

[6] = test system: class A carbapenemase (KPC)-producing E. coli; assay: Carbapenem MIC, class A carbapenemase-producing E. coli; assay type: cell-based; conditions: carbapenem alone or with 50µM ZN148
Description: as §1

[7] = test system: A. baumannii co-producing MBLs and class A/D serine carbapenemases; assay: Carbapenem MIC, A. baumannii co-producing NDM-1 and class D carbapenemases; assay type: cell-based; conditions: carbapenem alone or with 50µM ZN148, one value per strain
Description: as §1

[8] = test system: class A carbapenemase (KPC)-producing E. cloacae; assay: Carbapenem MIC, class A carbapenemase-producing E. cloacae; assay type: cell-based; conditions: carbapenem alone or with 50µM ZN148
Description: as §1

[9] = test system: K. pneumoniae co-producing MBLs and class A/D serine carbapenemases; assay: Carbapenem MIC, K. pneumoniae co-producing MBLs and class D carbapenemases; assay type: cell-based; conditions: carbapenem alone or with 50µM ZN148, one value per strain
Description: as §1

[10] = test system: E. coli co-producing MBLs and class A/D serine carbapenemases; assay: Carbapenem MIC, E. coli co-producing MBLs and class A/D serine carbapenemases; assay type: cell-based; conditions: carbapenem alone or with 50µM ZN148
Description: as §1

[11] = biological target: T1, NDM-1 (Klebsiella pneumoniae, UniProt C7C422); assay: Time-dependent inactivation kinetics of purified NDM-1 (imipenem); assay type: biochemical
T1 construct: made in house
T1 sequence (C7C422 29-270, looked up): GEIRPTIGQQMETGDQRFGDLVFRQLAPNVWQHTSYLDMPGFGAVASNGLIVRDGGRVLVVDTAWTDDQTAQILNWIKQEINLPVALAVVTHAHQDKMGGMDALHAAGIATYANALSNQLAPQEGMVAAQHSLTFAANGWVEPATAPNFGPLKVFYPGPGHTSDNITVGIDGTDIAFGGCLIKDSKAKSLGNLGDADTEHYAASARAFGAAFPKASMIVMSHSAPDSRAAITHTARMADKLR
Description: (§2) Protein expression and purification of NDM-1 and VIM-2 were performed as previously described ([36], [43], [57]). Stock solutions of purified NDM-1 and VIM-2 were prepared in 50 mM HEPES buffer (pH 7.5; Merck). Inhibition of NDM-1 and VIM-2 were determined for ZN148 and the analogues ZN222, ZN223, and ZN228 at different concentrations of inhibitor after preincubation times of 2, 8, 15, 25, and 32 min in 50 mM HEPES buffer (pH 7.5) supplemented with 1 μM ZnSO4 (Sigma-Aldrich) and bovine serum albumin (Sigma-Aldrich; final concentration, 2 μg/ml) at 25°C. Concentrations of 1 nM VIM-2 and 30 nM NDM-1 were used, and the reaction was initiated by the addition of 30 μM nitrocefin (Merck) for VIM-2 or 100 μM imipenem (Sigma-Aldrich) for NDM-1. The reaction was measured at 482 nm (VIM-2) or […] (NDM-1) in either standard 96-well plates (Thermo Fisher Scientific) for VIM-2 or UV-transparent 96-well plates (Corning, Kennebunk, ME) for NDM-1 at 25°C in a SpectraMax Plus plate reader (Molecular Devices). All of the enzyme and substrate concentrations indicated are the final concentrations in the assay. The enzyme activity as a percentage was calculated based on the initial velocity and compared to the control without inhibitor compound. All tests were performed at least in duplicates.
(§3) The observed rate constant (kobs) per inhibitor concentration was calculated from the slope of a semilog plot of the enzyme activity in percent versus preincubation time.
(§4) By fitting these values, the irreversible kinetic parameters maximum inactivation rate (kinact) and the inhibitor concentration that produces half-maximal rate of inactivation (KI) were obtained. Finally, the inhibitors were characterized by calculating kinact/KI. Where no saturation curve could be observed, KI and kinact were determined from the linear part of plot 1/kobs versus 1/[I].

[12] = biological target: T2, VIM-2 (Escherichia coli, UniProt Q5U7L7); assay: Time-dependent inactivation kinetics of purified VIM-2 (nitrocefin); assay type: biochemical
T2 construct: made in house
Description: as §2, §3, §4

[13] = biological target: T2, VIM-2; assay type: biochemical; conditions: after incubation with inhibitor and its removal (PD-10); 100 μM ZnSO4
Description: For reversibility of enzyme activity after incubation with ZN148, 3 ml of VIM-2 or NDM-1 was diluted with or without ZN148 in Chelex HEPES buffer (pH 7.5) and subsequently incubated for 1 h on ice. Then, 2.5 ml of each solution was loaded onto an equilibrated PD-10 column (GE Healthcare, Pittsburgh, PA), washed with 1 ml, and eluted with 1.5 ml of Chelex HEPES buffer (pH 7.5), respectively. Samples spiked and not spiked with inhibitor were diluted to a final enzyme concentration of 1 nM VIM-2 and 3 nM NDM-1. The initial reaction velocity was determined by adding nitrocefin (Merck) for VIM-2 or imipenem (Sigma-Aldrich) for NDM-1 at final concentrations of 50 and 100 μM, respectively. The initial enzyme reactions were recorded at 25°C. Inhibitor and enzyme alone were included as controls. All measurements were performed at least in duplicates. For enzyme restorability, pre- and postcolumn samples were supplemented with ZnSO4 (Sigma-Aldrich) to a final concentration of 100 μM and allowed to incubate for 5 min at 25°C. The initial enzyme velocity was then determined as described above.

[14] = biological target: T2, VIM-2; assay type: biochemical; conditions: VIM-2 preincubated with inhibitor
Description: VIM-2 (0.4 μM) was preincubated on ice for 30 min with or without ZN148. Complete protein unfolding was archived in 50 mM HEPES buffer (pH 7.5) supplemented with 1 μM ZnSO4 (Sigma-Aldrich) and 8 M urea (Merck, Darmstadt, Germany). Refolding was achieved by a stepwise buffer exchange using centrifugal cutoff filters (10 kDa; Merck) and decreasing concentrations of urea ([…] in 50 mM HEPES buffer [pH 7.5]). VIM-2 was diluted to a final concentration of 1 nM, and the enzyme activity was measured by adding nitrocefin (Merck) to a final concentration of 50 μM.

[15] = Escherichia coli, KPC-3 strain, read-out: MIC
[16] = Enterobacter cloacae, KPC-3 strain, read-out: MIC
[17] = KPC-2 strains, one value per strain

meropenem MIC [2]: 0.125 µg/mL
meropenem MIC [3]: 1 µg/mL
SMILES: c1ccc(CN(Cc2ccccn2)Cc2ccccn2)nc1 [TPA, Tris-picolylamine]
IC50 [1]: 9.8 µM and 9.75 µM
Kd [4]: 0.01 nM

MIC [5]: > 64 µg/mL
MIC [6, 15]: 8 µg/mL
MIC ([7]; NDM-1 + OXA-23-like strains): > 64 µg/mL
MIC ([8]; Enterobacter cloacae, KPC-2 strains, one value per strain, read-out: MIC): 8 µg/mL
MIC [8, 16]: 16 µg/mL
MIC [8, 17]: 16 µg/mL
MIC ([9]; NDM-1 + OXA-232 strains): > 64 µg/mL
MIC ([9]; NDM-5 + OXA-181 strains): > 64 µg/mL
MIC ([10]; NDM-1 + GES-2 strain): 16 µg/mL
MIC ([10]; NDM-5 + OXA-48 strain): 32 µg/mL
SMILES: C[C@@H](O)[C@H]1C(=O)N2C(C(=O)O)=C(SCCN=CN)C[C@H]12 [IPM, imipenem]

SMILES: CN(C[C@H](O)[C@@H](O)[C@H](O)[C@H](O)CO)C(=O)c1ccc(CN(Cc2ccccc2)Cc2ccccn2)nc1 [ZN223]
kinact [11]: 0.000633 s⁻¹
kinact/KI [11]: 1 M⁻¹ s⁻¹
meropenem MIC [2]: 32 µg/mL
meropenem MIC [3]: 32 µg/mL
kinact [12]: 0.000617 s⁻¹
kinact/KI [12]: 11.7 M⁻¹ s⁻¹

enzyme activity after unfolding and stepwise refolding, of control activity [14]: > 80%
SMILES: O=C(O)CN(CCN(CC(=O)O)CC(=O)O)CC(=O)O [EDTA]
MBL activity restored by addition of exogenous zinc, compared to untreated control [13]: complete or nearly complete (∼80%) restoration of activity

MIC [5]: > 64 µg/mL
MIC ([6]; Escherichia coli, KPC-2 strains, one value per strain, read-out: MIC): 4 µg/mL
MIC [6, 15]: 4 µg/mL
MIC [6, 17]: 2 µg/mL
MIC ([7]; NDM-1 + OXA-23-like strains): > 64 µg/mL
MIC ([7]; NDM-1 + OXA-24-like, OXA-58-like strains): > 64 µg/mL
MIC [8, 16]: 2 µg/mL
MIC ([9]; NDM-1 + OXA-232 strains): > 64 µg/mL
MIC ([9]; NDM-5 + OXA-181 strains): > 64 µg/mL
MIC ([10]; NDM-1 + GES-2 strain): 64 µg/mL
MIC ([10]; NDM-5 + OXA-48 strain): > 64 µg/mL
MIC ([10]; NDM-5 + OXA-181 strains, one value per strain): 64 µg/mL
MIC ([10]; NDM-5 + OXA-232 strains, one value per strain): > 64 µg/mL
SMILES: C[C@@H](O)[C@H]1C(=O)N2C(C(=O)O)=C(S[C@@H]3CN[C@H](CNS(N)(=O)=O)C3)[C@H](C)[C@H]12 [DOR, doripenem]

meropenem MIC [2]: 32 µg/mL
meropenem MIC [3]: 32 µg/mL
SMILES: CN(C[C@H](O)[C@@H](O)[C@H](O)[C@H](O)CO)C(=O)c1ccc(CN(Cc2ccccc2)Cc2ccccc2)nc1 [ZN222]

SMILES: CN(C[C@H](O)[C@@H](O)[C@H](O)[C@H](O)CO)C(=O)c1ccc(CN(Cc2ccccn2)Cc2ccccn2)cc1 [ZN228]
kinact [11]: 0.00127 s⁻¹
kinact/KI [11]: 1.83 M⁻¹ s⁻¹
meropenem MIC [2]: 32 µg/mL
meropenem MIC [3]: 32 µg/mL
kinact [12]: 0.000567 s⁻¹
kinact/KI [12]: 23.3 M⁻¹ s⁻¹
